According to PMC9127493 (Signal Transduction and Targeted Therapy, 2022):

What was measured:
[1] = system: SARS-CoV-2 variant Delta; experiment: microbe, parasite or virus in culture; format: cell-based; settings: Severe acute respiratory syndrome coronavirus 2; n = 6
[2] = system: SARS-CoV-2 variant Alpha; experiment: microbe, parasite or virus in culture; format: cell-based; settings: Severe acute respiratory syndrome coronavirus 2; n = 6
[3] = system: SARS-CoV-2 variant Omicron; experiment: microbe, parasite or virus in culture; format: cell-based; settings: Severe acute respiratory syndrome coronavirus 2; n = 6
[4] = system: Omicron variant; experiment: Cytopathic effect (CPE) inhibition assay in Vero E6 cells; format: cell-based, SARS-CoV-2
[5] = system: SARS-CoV-2 variant Beta; experiment: microbe, parasite or virus in culture; format: cell-based; settings: Severe acute respiratory syndrome coronavirus 2; n = 6
[6] = system: four SARS-CoV-2 variants of concern (VOCs), including Alpha, Beta, Delta and Omicron; format: cell-based; settings: at 200 nM

SMILES | EC50 [1] | EC50 [2] | EC50 [3] | rescue of cytopathic effect [4] | EC50 [5] | viral inhibition [6]
Cc1cccc(/C=N/Nc2cc(N3CCOCC3)nc(OCCc3ccccn3)n2)c1 [Apilimod] | < 6.9 nM | < 6.9 nM | < 6.9 nM | significantly rescued the cytopathic effects | < 6.9 nM | –
COc1ccc(C(=O)Nc2cccc(C(F)(F)F)c2)cc1Nc1nc(-c2cccnc2)c2[nH]ccc2n1 [XMU-MP-7] | < 6.9 nM | < 6.9 nM | < 6.9 nM | significantly rescued the cytopathic effects | 12.4 nM | complete viral inhibition
CCC(CC)COC(=O)[C@H](C)N[P@](=O)(OC[C@H]1O[C@@](C#N)(c2ccc3c(N)ncnn23)[C@H](O)[C@@H]1O)Oc1ccccc1 [Remdesivir] | 938 nM | 609 nM | 615 nM | – | 495 nM | –
